In data set [1] the test system is Staphylococcus aureus. As to the kind of experiment: Antibacterial activity against antibiotic resistant Staphylococcus aureus 4557/A assessed as reduction in microbial growth incubated for 24 hrs by microdilution assay. Type of data set: functional.
For data set [2], the system named is Staphylococcus aureus. As to the kind of experiment: Antibacterial activity against antibiotic resistant Staphylococcus aureus 4463/A assessed as reduction in microbial growth incubated for 24 hrs by microdilution assay. Type of data set: functional. A general note: Broth dilution looks for growth in wells or tubes with falling amounts of substance.
The subject of data set [3] is Staphylococcus aureus. As to the kind of experiment: Antibacterial activity against antibiotic resistant Staphylococcus aureus 4904/C assessed as reduction in microbial growth incubated for 24 hrs by microdilution assay. Type of data set: functional.
Data set [4] relates to Staphylococcus aureus. Briefly: Antibacterial activity against antibiotic resistant Staphylococcus aureus 4862/C assessed as reduction in microbial growth incubated for 24 hrs by microdilution assay. Type of data set: functional.
The test system of data set [5] is Staphylococcus aureus. As to the kind of experiment: Antibacterial activity against antibiotic resistant Staphylococcus aureus 4883/C assessed as reduction in microbial growth incubated for 24 hrs by microdilution assay. Type of data set: functional.
Data set [6] deals with Staphylococcus aureus. As to the kind of experiment: Antibacterial activity against antibiotic resistant Staphylococcus aureus 4880/C assessed as reduction in microbial growth incubated for 24 hrs by microdilution assay. Type of data set: functional.
For data set [7], the system named is Staphylococcus aureus. As to the kind of experiment: Antibacterial activity against antibiotic resistant Staphylococcus aureus 4460/A assessed as reduction in microbial growth incubated for 24 hrs by microdilution assay. Type of data set: functional.
Data set [8] deals with Staphylococcus aureus. Briefly: Antibacterial activity against antibiotic resistant Staphylococcus aureus 4740/B assessed as reduction in microbial growth incubated for 24 hrs by microdilution assay. Type of data set: functional.
Data set [9] concerns Staphylococcus aureus. Briefly: Antibacterial activity against antibiotic resistant Staphylococcus aureus 4482/A assessed as reduction in microbial growth incubated for 24 hrs by microdilution assay. Type of data set: functional.
Data set [10] has as its system Staphylococcus aureus. As to the kind of experiment: Antibacterial activity against antibiotic resistant Staphylococcus aureus 4566/A assessed as reduction in microbial growth incubated for 24 hrs by microdilution assay. Type of data set: functional.
Data set [11] has as its system Staphylococcus aureus. As to the kind of experiment: Antibacterial activity against antibiotic resistant Staphylococcus aureus 4504/A assessed as reduction in microbial growth incubated for 24 hrs by microdilution assay. Type of data set: functional.
Data set [12] has as its system Staphylococcus aureus. Briefly: Antibacterial activity against antibiotic resistant Staphylococcus aureus 4717/B assessed as reduction in microbial growth incubated for 24 hrs by microdilution assay. Type of data set: functional.
In data set [13] the test system is Staphylococcus aureus. Briefly: Antibacterial activity against antibiotic resistant Staphylococcus aureus 4738/B assessed as reduction in microbial growth incubated for 24 hrs by microdilution assay. Type of data set: functional.
In data set [14] the test system is Staphylococcus aureus. Briefly: Antibacterial activity against antibiotic resistant Staphylococcus aureus 4461/A assessed as reduction in microbial growth incubated for 24 hrs by microdilution assay. Type of data set: functional.
For data set [15], the system named is Staphylococcus aureus. Briefly: Antibacterial activity against antibiotic resistant Staphylococcus aureus 4679/B assessed as reduction in microbial growth incubated for 24 hrs by microdilution assay. Type of data set: functional.
Data set [16] deals with Staphylococcus aureus. Briefly: Antibacterial activity against antibiotic resistant Staphylococcus aureus 4502/A assessed as reduction in microbial growth incubated for 24 hrs by microdilution assay. Type of data set: functional.
Data set [17] has as its system Staphylococcus aureus. As to the kind of experiment: Antibacterial activity against antibiotic resistant Staphylococcus aureus 4515/A assessed as reduction in microbial growth incubated for 24 hrs by microdilution assay. Type of data set: functional.
Data set [18] has as its system Staphylococcus aureus. Briefly: Antibacterial activity against antibiotic resistant Staphylococcus aureus 5079/C assessed as reduction in microbial growth incubated for 24 hrs by microdilution assay. Type of data set: functional.
Data set [19] has as its system Staphylococcus aureus. As to the kind of experiment: Antibacterial activity against antibiotic resistant Staphylococcus aureus 4788/B assessed as reduction in microbial growth incubated for 24 hrs by microdilution assay. Type of data set: functional.
For data set [20], the system named is Staphylococcus aureus. Briefly: Antibacterial activity against antibiotic resistant Staphylococcus aureus 78/CF assessed as reduction in microbial growth incubated for 24 hrs by microdilution assay. Type of data set: functional.
Data set [21] relates to Staphylococcus aureus. Briefly: Antibacterial activity against antibiotic resistant Staphylococcus aureus 77/CF assessed as reduction in microbial growth incubated for 24 hrs by microdilution assay. Type of data set: functional.
Data set [22] relates to Staphylococcus aureus. As to the kind of experiment: Antibacterial activity against wild type methicillin resistant Staphylococcus aureus 4561/A assessed as reduction in microbial growth incubated for 24 hrs by microdilution assay. Type of data set: functional.
The subject of data set [23] is Staphylococcus aureus. As to the kind of experiment: Antibacterial activity against wild type methicillin resistant Staphylococcus aureus 4968/C assessed as reduction in microbial growth incubated for 24 hrs by microdilution assay. Type of data set: functional.
Data set [24] deals with Staphylococcus aureus. Briefly: Antibacterial activity against wild type methicillin resistant Staphylococcus aureus 5017/C assessed as reduction in microbial growth incubated for 24 hrs by microdilution assay. Type of data set: functional.
For another data set, the system named is Enterococcus faecalis. Briefly: Antibacterial activity against Enterococcus faecalis ATCC 29212 = CCM 4224 assessed as inhibition of bacterial growth incubated for 24 hrs by microdilution assay. Type of data set: functional.
Data set [25] concerns Staphylococcus aureus. As to the kind of experiment: Antibacterial activity against Staphylococcus aureus ATCC 29213 = CCM 4223 assessed as inhibition of bacterial growth incubated for 24 hrs by microdilution assay. Type of data set: functional.
The subject of data set [26] is Staphylococcus aureus. As to the kind of experiment: Antibacterial activity against Staphylococcus aureus ATCC 29213 = CCM 4223 assessed as inhibition of bacterial growth incubated for 24 hrs in presence of BSA by microdilution assay. Type of data set: functional.
Data set [27] has as its system Escherichia coli. Briefly: Antibacterial activity against Escherichia coli ATCC 25922 = CCM 3954 assessed as inhibition of bacterial growth incubated for 24 hrs by microdilution assay. Type of data set: functional.
Data set [28] has as its system Escherichia coli. Briefly: Antibacterial activity against Escherichia coli ATCC 25922 = CCM 3954 assessed as inhibition of bacterial growth incubated for 24 hrs in presence of BSA by microdilution assay. Type of data set: functional.
Data set [29] deals with Pseudomonas aeruginosa. As to the kind of experiment: Antibacterial activity against Pseudomonas aeruginosa ATCC 27853 = CCM 3955 assessed as inhibition of bacterial growth incubated for 24 hrs by microdilution assay. Type of data set: functional.
A short description of data set [30]: Hemolytic activity in human RBC assessed as haemoglobin release measured after 3 hr. Type of data set: toxicity, cell-based, Erythrocyte. The note with it: red blood cells (erythrocytes).
Data set [31] can be described thus: Gradient chromatographic hydrophobicity index of the compound at pH 3.7 by HPLC analysis. Type of data set: ADME.
Data set [32] relates to Staphylococcus epidermidis. Briefly: Antibacterial activity against Staphylococcus epidermidis CCM 7221 assessed as inhibition of bacterial growth incubated for 24 hrs by microdilution assay. Type of data set: functional.
The subject of data set [33] is Staphylococcus aureus. Briefly: Antibacterial activity against methicillin resistant Staphylococcus aureus 4591/A assessed as reduction in microbial growth incubated for 24 hrs by microdilution assay. Type of data set: functional.
The test system of data set [34] is Escherichia coli. Briefly: Antibacterial activity against multidrug-resistant Escherichia coli CE5556 expressing CTX-M-15 assessed as reduction in microbial growth incubated for 24 hrs by microdilution assay. Type of data set: functional.
The subject of the next data set is Enterococcus faecium. Briefly: Antibacterial activity against vancomycin resistant Enterococcus faecium 419/ANA assessed as reduction in microbial growth incubated for 24 hrs by microdilution assay. Type of data set: functional.
The subject of data set [35] is Pseudomonas aeruginosa. As to the kind of experiment: Antibacterial activity against multidrug-resistant Pseudomonas aeruginosa assessed as reduction in microbial growth incubated for 24 hrs by microdilution assay. Type of data set: functional.
Data set [36] has as its system Cell membrane. Briefly: Induction of plasma membrane depolarization in Escherichia coli CCM 3954 assessed as increase in fluorescence intensity at 2.5 mg/L measured after 80 seconds by DiSC3-5 dye based spectrofluorometer method. Conditions: time 80.0 sec. Type of data set: cell membranes.
Data set [37] concerns Cell membrane. Briefly: Induction of membrane permeabilization in Escherichia coli CCM 3954 assessed as propidium iodide influx measured after 80 mins by spectrofluorometer method. Conditions: dose 2.5-5 mg/L, DDE = dose-dependent effect.
Data set [38] relates to Lipid bilayer. Briefly: Induction of membrane disruption of bacterial inner membrane mimic DOPE/DOPG (2:1) large unilamellar vesicles assessed as carboxyfluorescein leakage at 2.5 mg/L measured after 90 mins by spectrofluorometer analysis.
Data set [39] concerns Lipid bilayer. Briefly: Induction of membrane disruption of […] membrane mimic DOPC/DOPE (2:1) large unilamellar vesicles assessed as carboxyfluorescein leakage at 2.5 mg/L measured after 90 mins by spectrofluorometer analysis.

The structures appear in SMILES notation. The source made the active and inactive calls. Bounds are passed on as bounds.

Usually MIC stands for the smallest concentration in the dilution series that meets the test's criterion for growth inhibition. Turning to `CC1(C)S[C@@H]2[C@H](NC(=O)Cc3ccccc3)C(=O)N2[C@H]1C(=O)O` [PENICILLIN G], the MIC in the data set with Staphylococcus aureus [1] is 0.25 µg/mL; in the data set with Staphylococcus aureus [2], 0.25 µg/mL; with Staphylococcus aureus [3], 0.25 µg/mL; with Staphylococcus aureus [4], 1 µg/mL; in the data set with Staphylococcus aureus [5], 0.25 µg/mL; in the data set with Staphylococcus aureus [6], 0.25 µg/mL. Further, the minimal inhibitory concentration (MIC) in the data set with Staphylococcus aureus [7] amounted to 1 µg/mL; in the data set on Staphylococcus aureus [8], 0.25 µg/mL; with Staphylococcus aureus [9], 2 µg/mL; with Staphylococcus aureus [10], 0.25 µg/mL; with Staphylococcus aureus [11], 0.25 µg/mL; in the data set on Staphylococcus aureus [12], 0.5 µg/mL. Also, the minimum inhibitory concentration (MIC) in the data set on Staphylococcus aureus [13] is 1 µg/mL; in the data set on Staphylococcus aureus [14], 1 µg/mL; in the data set with Staphylococcus aureus [15], 0.5 µg/mL; in the data set on Staphylococcus aureus [16], 0.25 µg/mL; in the data set on Staphylococcus aureus [17], 0.5 µg/mL; in the data set with Staphylococcus aureus [18], 0.25 µg/mL. The minimal inhibitory concentration (MIC) with Staphylococcus aureus [19] is 0.25 µg/mL; in the data set with Staphylococcus aureus [20] it was 0.25 µg/mL; in the data set with Staphylococcus aureus [21] it was 0.5 µg/mL; in the data set with Staphylococcus aureus [22], more than 2 µg/mL; in the data set on Staphylococcus aureus [23], more than 4 µg/mL; in the data set with Staphylococcus aureus [24] it was more than 4 µg/mL.

Usually HC50 stands for the concentration giving 50% haemolysis. Regarding `CCCCCCCCOP(=O)(CCN(CCCN)CCCN)OCCCCCCCCCCOP(=O)(CCN(CCCN)CCCN)OCCCCCCCC.Cl.Cl.Cl.Cl.Cl.Cl` (stereo unspecified), the minimal inhibitory concentration (MIC) in the data set with Enterococcus faecalis worked out at 0.5 µg/mL; in the data set on Staphylococcus aureus [25], 0.5 µg/mL; in the data set with Staphylococcus aureus [26] it was 0.125 µg/mL; with Escherichia coli [27] it was 0.5 µg/mL; with Escherichia coli [28], 0.5 µg/mL; with Pseudomonas aeruginosa [29], 1 µg/mL. For the same molecule, the MIC in data set [32] came to 0.5 µg/mL; with Staphylococcus aureus [33], 3 µg/mL; with Escherichia coli [34] it was 1 µg/mL; with Enterococcus faecium, 1 µg/mL; with Pseudomonas aeruginosa [35], 1 µg/mL. Further, the HC50 at 3 h in [30] worked out at 6.4 µg/mL. This molecule came in with a CHI in data set [31] of 40.6. For the same molecule, the result in the data set with Cell membrane [36], in the data set on Lipid bilayer [38] and with Lipid bilayer [39] was Active. Besides, the Activity result in the data set on Cell membrane [37] is “Dde”.
